Our source for the IC50 values is US9187464B2, “TRPV4 antagonists” (GlaxoSmithKline Intellectual Property (No. 2) Limited, priority 2011, dated 2015).

For this experiment, the target named is T1, human TRPV4 (Homo sapiens, UniProt Q9HBA0).
T1 construct: expressed in transfected cells; host or cells: HEK-293-MSR-II cells transduced with 1% BacMam virus
The experiment can be described thus: Ligand-gated assay (Fluo4 calcium, FLIPR; inhibition of agonist-induced activation). It is filed as cell-based. To be noted: HEK-293-MSR-II cells transduced with BacMam human TRPV4; agonist at EC80. The method in brief: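 Agonist (EC80) response read on FLIPR as Fluo-4 (2 uM) fluorescence after 10-min room-temperature compound exposure in HBSS/HEPES pH 7.4 with 0.01% Chaps. Cells: HEK-293-MSR-II expressing human TRPV4 via BacMam; output is IC50 of inhibition.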

T1 sequence (Q9HBA0 whole entry): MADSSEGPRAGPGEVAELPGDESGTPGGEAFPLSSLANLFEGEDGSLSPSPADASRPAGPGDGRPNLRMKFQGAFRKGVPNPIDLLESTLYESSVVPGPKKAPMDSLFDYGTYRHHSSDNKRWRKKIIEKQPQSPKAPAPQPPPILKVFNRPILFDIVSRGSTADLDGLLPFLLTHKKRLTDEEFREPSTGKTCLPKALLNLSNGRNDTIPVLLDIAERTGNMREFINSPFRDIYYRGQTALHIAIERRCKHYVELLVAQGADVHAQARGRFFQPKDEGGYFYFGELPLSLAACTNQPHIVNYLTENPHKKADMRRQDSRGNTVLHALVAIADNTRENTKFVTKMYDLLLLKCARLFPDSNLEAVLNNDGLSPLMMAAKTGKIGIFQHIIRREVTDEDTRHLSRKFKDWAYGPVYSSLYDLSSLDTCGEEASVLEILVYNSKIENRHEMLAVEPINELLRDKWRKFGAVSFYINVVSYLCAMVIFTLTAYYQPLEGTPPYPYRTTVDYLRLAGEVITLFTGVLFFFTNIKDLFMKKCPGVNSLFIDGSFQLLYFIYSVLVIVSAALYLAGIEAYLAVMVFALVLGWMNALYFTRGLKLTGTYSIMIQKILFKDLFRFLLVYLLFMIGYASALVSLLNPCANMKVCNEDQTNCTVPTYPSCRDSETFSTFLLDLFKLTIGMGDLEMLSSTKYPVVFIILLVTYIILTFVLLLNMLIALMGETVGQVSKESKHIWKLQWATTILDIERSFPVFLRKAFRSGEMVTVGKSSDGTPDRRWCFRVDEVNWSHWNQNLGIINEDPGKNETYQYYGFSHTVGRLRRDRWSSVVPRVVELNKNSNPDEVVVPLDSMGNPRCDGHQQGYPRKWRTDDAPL

For `Cc1noc(N2C[C@@]3(CCC[C@](C)(Cn4cnc5ccc(C#N)cc54)C3)OC2=O)c1C` [Example 57, 1-(((5S,7S)-3-(3,4-Dimethylisoxazol-5-yl)-7-methyl-2-oxo-1-oxa-3-azaspiro[4.5]decan-7-yl)methyl)-1H-benzo[d]imidazole-6-carbonitrile], the concentration for half-maximal inhibition (IC50) is 0.0001 to 0.01 µM.
`N#Cc1ccc2ncn(C[C@H]3CCC[C@]4(C3)CN(Cc3csc(-c5ccccc5)n3)C(=O)O4)c2c1` [Example 63, 1-({(5S,7S)-2-oxo-3-[(2-phenyl-1,3-thiazol-4-yl)methyl]-1-oxa-3-azaspiro[4.5]dec-7-yl}methyl)-1H-benzimidazole-6-carbonitrile]: the half-maximal inhibitory concentration (IC50) lay within 0.01 to 0.05 µM.
With `CCc1noc(C(C)(C)CN2C[C@@]3(CCC[C@H](Cn4cnc5ccc(C#N)cc54)C3)OC2=O)n1` [Example 6, 1-({(5S,7S)-3-[2-(3-Ethyl-1,2,4-oxadiazol-5-yl)-2-methylpropyl]-2-oxo-1-oxa-3-azaspiro[4.5]dec-7-yl}methyl)-1H-benzimidazole-6-carbonitrile], the IC50 lay in the range of 0.0001 to 0.01 µM.
As for `N#Cc1ccc2ncn(C[C@H]3CCC[C@]4(C3)CN(CC3CCN(c5ccccn5)C3)C(=O)O4)c2c1` (stereo partly drawn) [Example 86, 1-[((5S,7S)-2-oxo-3-{[1-(2-pyridinyl)-3-pyrrolidinyl]methyl}-1-oxa-3-azaspiro[4.5]dec-7-yl)methyl]-1H-benzimidazole-6-carbonitrile], the 50% inhibitory concentration (IC50) fell in the range of 0.05 to 0.5 µM.
Next, `N#Cc1ccc2ncn(C[C@H]3CCC[C@]4(C3)CN(Cc3cn(C5CCCCC5)nn3)C(=O)O4)c2c1` [Example 97, 1-({(5S,7S)-3-[(1-cyclohexaneyl-1H-1,2,3-triazol-4-yl)methyl]-2-oxo-1-oxa-3-azaspiro[4.5]dec-7-yl}methyl)-1H-benzimidazole-6-carbonitrile]: 0.01 to 0.05 µM.
On to `COc1cnc(N2C[C@@]3(CCC[C@](C)(Cn4cnc5ccc(C#N)cc54)C3)OC2=O)cn1` [Example 17, 1-(((7S)-3-(5-Methoxypyrazin-2-yl)-7-methyl-2-oxo-1-oxa-3-azaspiro[4.5]decan-7-yl)methyl)-1H-benzo[d]imidazole-6-carbonitrile], for which the concentration for half-maximal inhibition (IC50) is 0.01 to 0.05 µM.
`CC(C)(C)OC(=O)OCC(C)(C)c1cc(N2C[C@@]3(CCC[C@](C)(Cn4cnc5ccc(C#N)cc54)C3)OC2=O)on1` [Example 20, Tert-butyl (2-(5-((5S,7S)-7-((6-cyano-1H-benzo[d]imidazol-1-yl)methyl)-7-methyl-2-oxo-1-oxa-3-azaspiro[4.5]decan-3-yl)isoxazol-3-yl)-2-methylpropyl) carbonate]: the half-inhibitory concentration (IC50) was in the range of 0.0001 to 0.01 µM.
For `N#Cc1ccc2ncn(C[C@H]3CCC[C@]4(C3)CN(Cc3csc5ccccc35)C(=O)O4)c2c1` (stereo in doubt) [Example 62, 1-{[3-(1-benzothien-3-ylmethyl)-2-oxo-1-oxa-3-azaspiro[4.5]dec-7-yl]methyl}-1H-benzimidazole-6-carbonitrile], the half-maximal inhibitory concentration (IC50) was in the range of 0.01 to 0.05 µM.
Next, `CCOc1ccc(N2C[C@@]3(CCC[C@](C)(Cn4cnc5ccc(C#N)cc54)C3)OC2=O)nn1` [Example 136, 1-({(5S,7S)-3-[6-(ethyloxy)-3-pyridazinyl]-7-methyl-2-oxo-1-oxa-3-azaspiro[4.5]dec-7-yl}methyl)-1H-benzimidazole-6-carbonitrile]: 0.05 to 0.5 µM; `C[C@]1(Cn2cnc3ccc(C#N)cc32)CCC[C@@]2(CN(c3cc(C4CC4)no3)C(=O)O2)C1` [Example 34, 1-{[(5S,7S)-3-(3-cyclopropyl-5-isoxazolyl)-7-methyl-2-oxo-1-oxa-3-azaspiro[4.5]dec-7-yl]methyl}-1H-benzimidazole-6-carbonitrile]: 0.0001 to 0.01 µM; `COc1ccc(N2C[C@@]3(CCC[C@](C)(Cn4cnc5ccc(C#N)cc54)C3)OC2=O)c(OC)n1` [Example 110, 1-({(5S,7S)-3-[2,6-bis(methyloxy)-3-pyridinyl]-7-methyl-2-oxo-1-oxa-3-azaspiro[4.5]dec-7-yl}methyl)-1H-benzimidazole-6-carbonitrile]: 0.0001 to 0.01 µM.
As for `CC(C)c1noc(C(C)(C)CN2C[C@@]3(CCC[C@H](Cn4cnc5ccc(C#N)cc54)C3)OC2=O)n1` [Example 76, 1-[((5S,7S)-3-{2-methyl-2-[3-(1-methylethyl)-1,2,4-oxadiazol-5-yl]propyl}-2-oxo-1-oxa-3-azaspiro[4.5]dec-7-yl)methyl]-1H-benzimidazole-6-carbonitrile], the IC50 lay in the range of 0.0001 to 0.01 µM.
As to `CCc1cccnc1N1C[C@@]2(CCC[C@](C)(Cn3cnc4ccc(C#N)cc43)C2)OC1=O` [Example 129, 1-(((5S,7S)-3-(3-ethylpyridin-2-yl)-7-methyl-2-oxo-1-oxa-3-azaspiro[4.5]decan-7-yl)methyl)-1H-benzo[d]imidazole-6-carbonitrile], the IC50 fell in the range of 0.01 to 0.05 µM.
`CCOc1ccc(CN2CC3(CCC[C@](C)(Cn4cnc5ccc(C#N)cc54)C3)OC2=O)nc1` (stereo in doubt) [Example 157, 1-(((5S,7S)-3-((5-ethoxypyridin-2-yl)methyl)-7-methyl-2-oxo-1-oxa-3-azaspiro[4.5]decan-7-yl)methyl)-1H-benzo[d]imidazole-6-carbonitrile]: the half-maximal inhibitory concentration (IC50) is 0.0001 to 0.01 µM.
Take `N#Cc1ccc2ncn(C[C@H]3CCC[C@]4(C3)CN(Cc3cn(-c5ccc(C#N)c(C(F)(F)F)c5)nn3)C(=O)O4)c2c1` [Example 98, 1-{[(5S,7S)-3-({1-[4-cyano-3-(trifluoromethyl)phenyl]-1H-1,2,3-triazol-4-yl}methyl)-2-oxo-1-oxa-C azaspiro[4.5]dec-7-yl]methyl}-1H benzimidazole-6-carbonitrile]: the half-inhibitory concentration (IC50) lay in the range of 0.0001 to 0.01 µM.
As for `CC(C)(C)c1noc(N2C[C@@]3(CCC[C@](C)(Cn4cnc5ccc(C#N)cc54)C3)OC2=O)c1Br` [Example 108, 1-({(5S,7S)-3-[4-bromo-3-(1,1-dimethylethyl)-5-isoxazolyl]-7-methyl-2-oxo-1-oxa-3-azaspiro[4.5]dec-7-yl}methyl)-1H-benzimidazole-6-carbonitrile], the IC50 lay within 0.0001 to 0.01 µM.
Consider `COc1ncccc1N1C[C@@]2(CCC[C@](C)(Cn3cnc4ccc(C#N)cc43)C2)OC1=O` [Example 109, 1-[{(5S,7S)-7-methyl-3-[2-(methyloxy)-3-pyridinyl]-2-oxo-1-oxa-3-azaspiro[4.5]dec-7-yl}methyl]-1H-benzimidazole-6-carbonitrile], for which the IC50 lay within 0.05 to 0.5 µM.
Consider `Cc1nc(C(F)(F)F)cnc1N1C[C@@]2(CCC[C@H](Cn3cnc4ccc(C#N)cc43)C2)OC1=O` [Example 131, 1-(((5S,7S)-3-(3-methyl-5-(trifluoromethyl)pyrazin-2-yl)-2-oxo-1-oxa-3-azaspiro[4.5]decan-7-yl)methyl)-1H-benzo[d]imidazole-6-carbonitrile], for which the concentration for half-maximal inhibition (IC50) lay within 0.05 to 0.5 µM.
Regarding `N#Cc1ccc2ncn(C[C@H]3CCC[C@]4(C3)CN(Cc3cn(-c5ccc(C(F)(F)F)cc5)nn3)C(=O)O4)c2c1` [Example 102, 1-{[(5S,7S)-2-oxo-3-({1-[4-(trifluoromethyl)phenyl]-1H-1,2,3-triazol-4-yl}methyl)-1-oxa-3-azaspiro[4.5]dec-7-yl]methyl}-1H-benzimidazole-6-carbonitrile], the concentration for half-maximal inhibition (IC50) lay in the range of 0.0001 to 0.01 µM.
As for `COc1nc(C)ccc1N1C[C@@]2(CCC[C@](C)(Cn3cnc4ccc(C#N)cc43)C2)OC1=O` [Example 126, 1-(((5S,7S)-3-(2-methoxy-6-methylpyridin-3-yl)-7-methyl-2-oxo-1-oxa-3-azaspiro[4.5]decan-7-yl)methyl)-1H-benzo[d]imidazole-6-carbonitrile], the IC50 was 0.0001 to 0.01 µM.
Next, `C[C@]1(Cn2cnc3ccc(C#N)cc32)CCC[C@@]2(CN(Cc3csc4ncccc34)C(=O)O2)C1` (relative stereo) [Example 152, 1-{[(trans)-7-methyl-2-oxo-3-(thieno[2,3-b]pyridin-3-ylmethyl)-1-oxa-3-azaspiro[4.5]dec-7-yl]methyl}-1H-benzimidazole-6-carbonitrile]: 0.0001 to 0.01 µM; `CC(C)(C)c1noc(N2C[C@@]3(CCC[C@H](Cn4cnc5ccc(C#N)cc54)C3)OC2=O)c1F` [Example 47, 1-(((5S,7S)-3-(3-(tert-butyl)-4-fluoroisoxazol-5-yl)-2-oxo-1-oxa-3-azaspiro[4.5]decan-7-yl)methyl)-1H-benzo[d]imidazole-6-carbonitrile]: 0.0001 to 0.01 µM.
With `N#Cc1ccc(-n2cc(CN3C[C@@]4(CCC[C@H](Cn5cnc6ccc(C#N)cc65)C4)OC3=O)nn2)cc1` [Example 88, 1-[((5S,7S)-3-{[1-(4-cyanophenyl)-1H-1,2,3-triazol-4-yl]methyl}-2-oxo-1-oxa-3-azaspiro[4.5]dec-7-yl)methyl]-1H-benzimidazole-6-carbonitrile], the 50% inhibitory concentration (IC50) fell in the range of 0.05 to 0.5 µM.
Take `CC(C)(CN1C[C@@]2(CCC[C@H](Cn3cnc4c(Cl)cc(C#N)cc43)C2)OC1=O)c1nc(-c2ccccc2)no1` [Example 73, 4-chloro-1-({(5S,7S)-3-[2-methyl-2-(3-phenyl-1,2,4-oxadiazol-5-yl)propyl]-2-oxo-1-oxa-3-azaspiro[4.5]dec-7-yl}methyl)-1H-benzimidazole-6-carbonitrile]: the IC50 was in the range of 0.0001 to 0.01 µM.
On to `N#Cc1ccc2ncn(C[C@H]3CCC[C@]4(C3)CN(Cc3sc5ncccc5c3Br)C(=O)O4)c2c1` [Example 153], for which the IC50 lay in the range of 0.0001 to 0.01 µM.
Turning to `C[C@]1(Cn2cnc3ccc(C#N)cc32)CCC[C@@]2(CN(c3ccc(C(F)(F)F)nc3)C(=O)O2)C1` [Example 139, 1-({(5S,7S)-7-methyl-2-oxo-3-[6-(trifluoromethyl)-3-pyridinyl]-1-oxa-3-azaspiro[4.5]dec-7-yl}methyl)-1H-benzimidazole-6-carbonitrile], the IC50 was 0.0001 to 0.01 µM.
`CC(C)(C)n1cc(N2C[C@@]3(CCC[C@](C)(Cn4cnc5ccc(C#N)cc54)C3)OC2=O)nn1` [Example 52, 1-(((5S,7S)-3-(1-(tert-butyl)-1H-1,2,3-triazol-4-yl)-7-methyl-2-oxo-1-oxa-3-azaspiro[4.5]decan-7-yl)methyl)-1H-benzo[d]imidazole-6-carbonitrile]: the 50% inhibitory concentration (IC50) lay within 0.05 to 0.5 µM.

What is called IC50 is the concentration that inhibits the measured activity by half.
